Reference: patent US7498358B2, “Human ADAM-10 inhibitors” (Exelixis, Inc., priority 2001, dated 2009)
Like-named read-outs stand apart in the source and are kept apart here.

Tests used:
hADAM-10 = molecular target: T1, hADAM-10 (UniProt O14672); experiment: ADAM-10 enzyme assay: cleavage of fluorogenic 10-residue peptide (DABCYL/EDANS); assay type: biochemical, human; details: Table 4, in vitro
T1 sequence (O14672 1-748): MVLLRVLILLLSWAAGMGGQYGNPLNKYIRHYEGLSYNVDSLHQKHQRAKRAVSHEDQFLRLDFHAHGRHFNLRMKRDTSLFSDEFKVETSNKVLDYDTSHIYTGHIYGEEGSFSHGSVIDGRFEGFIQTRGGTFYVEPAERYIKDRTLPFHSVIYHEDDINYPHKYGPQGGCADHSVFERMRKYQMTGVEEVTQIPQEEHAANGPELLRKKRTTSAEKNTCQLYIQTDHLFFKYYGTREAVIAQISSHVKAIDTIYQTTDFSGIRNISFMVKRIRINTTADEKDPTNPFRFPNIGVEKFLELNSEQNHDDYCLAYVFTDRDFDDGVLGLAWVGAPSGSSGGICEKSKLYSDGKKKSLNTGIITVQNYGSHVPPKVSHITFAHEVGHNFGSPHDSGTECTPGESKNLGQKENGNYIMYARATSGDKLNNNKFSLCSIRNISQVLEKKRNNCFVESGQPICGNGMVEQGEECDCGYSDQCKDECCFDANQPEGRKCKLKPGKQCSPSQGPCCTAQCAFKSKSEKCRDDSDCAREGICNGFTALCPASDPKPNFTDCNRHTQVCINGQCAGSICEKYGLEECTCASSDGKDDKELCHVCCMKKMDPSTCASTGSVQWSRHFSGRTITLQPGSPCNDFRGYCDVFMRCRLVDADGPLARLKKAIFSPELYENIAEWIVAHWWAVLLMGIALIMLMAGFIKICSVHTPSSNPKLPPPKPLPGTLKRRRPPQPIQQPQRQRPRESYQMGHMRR
Method: mADAM-10 or hADAM-10 activity was measured as the ability to cleave a 10-residue peptide (DABCYL-Leu-Leu-Ala-Gln-Lys-*-Leu-Arg-Ser-Ser-Arg-EDANS). […] Enzyme was diluted to a final active concentration of 5 nM in Buffer A (50 mM HEPES 8.0, 100 mM NaCl, 1 mM CaCl2 and 0.01% NP-40). Serial dilutions for compounds were performed ranging from 100 uM to 0.5 nM using a Beckman Biomek 2000 in polypropylene plates (Greiner). 20 μl of enzyme solution was added to 10 μl of compound in buffer A, and allowed to incubate for 15 min in 384 well black, Greiner, microtiter plates (#781076). 20 μl of substrate (12.5 uM in Buffer A) was then added, resulting in final reaction conditions of 2 nM ADAM-10, 5 μM substrate, and compound concentrations ranging from 20 uM to 0.1 nM. The reaction was incubated for 2 hr at RT, and fluorescence was measured at Ex355, Em460 on a Wallac Victor 2 fluorescence reader. For final analysis of potent inhibitors, a similar reaction was set up with a final active ADAM-10 concentration of 0.1 nM. This reaction was incubated for 16 hr at RT and fluorescence was read using identical conditions.
(§1) Inhibition is indicated as IC50 with the following key: A=IC50 less than 50 nM, B=IC50 greater than 50 nM, but less than 1000 nM, C=IC50 greater than […], but less than 20,000 nM, and D=IC50 greater than 20,000 nM.

various metalloproteases [1] = experiment: in vitro inhibition of various metalloproteases (Table 4); assay type: biochemical; details: Table 4, in vitro
Method: as §1

various metalloproteases [2] = molecular target: T2, various metalloproteases (Homo sapiens, UniProt P08253); experiment: as above; assay type: biochemical; details: MMP2; Table 4, in vitro
T2 sequence (P08253 110-660): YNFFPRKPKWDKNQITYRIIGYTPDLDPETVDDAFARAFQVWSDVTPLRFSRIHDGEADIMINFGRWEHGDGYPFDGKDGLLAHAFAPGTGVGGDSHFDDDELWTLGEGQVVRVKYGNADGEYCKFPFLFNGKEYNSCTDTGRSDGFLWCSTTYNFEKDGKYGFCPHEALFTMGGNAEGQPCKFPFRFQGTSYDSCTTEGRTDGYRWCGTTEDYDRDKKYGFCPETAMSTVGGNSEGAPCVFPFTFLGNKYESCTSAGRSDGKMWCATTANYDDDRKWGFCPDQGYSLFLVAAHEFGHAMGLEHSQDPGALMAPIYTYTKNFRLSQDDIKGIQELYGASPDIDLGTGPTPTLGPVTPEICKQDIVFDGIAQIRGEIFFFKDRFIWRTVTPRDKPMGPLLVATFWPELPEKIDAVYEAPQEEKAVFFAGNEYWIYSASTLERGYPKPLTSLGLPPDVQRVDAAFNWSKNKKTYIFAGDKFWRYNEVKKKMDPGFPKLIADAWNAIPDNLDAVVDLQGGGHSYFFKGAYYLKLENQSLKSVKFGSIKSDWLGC
Method: as §1

various metalloproteases [3] = molecular target: various metalloproteases (Homo sapiens, UniProt P08254); experiment: as above; assay type: biochemical; details: MMP3; Table 4, in vitro
various metalloproteases (Homo sapiens, UniProt P08254), sequence (P08254 100-477): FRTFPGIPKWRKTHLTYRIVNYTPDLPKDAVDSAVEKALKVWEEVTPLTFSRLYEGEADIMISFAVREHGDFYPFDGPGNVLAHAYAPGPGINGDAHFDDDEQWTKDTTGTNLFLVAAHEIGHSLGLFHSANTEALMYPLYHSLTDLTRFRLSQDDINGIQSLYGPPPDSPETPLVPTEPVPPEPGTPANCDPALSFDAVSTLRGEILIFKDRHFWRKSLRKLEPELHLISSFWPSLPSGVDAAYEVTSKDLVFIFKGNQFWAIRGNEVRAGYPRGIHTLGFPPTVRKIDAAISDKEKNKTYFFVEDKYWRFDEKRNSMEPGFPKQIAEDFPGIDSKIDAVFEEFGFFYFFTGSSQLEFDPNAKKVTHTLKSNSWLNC
Method: as §1

various metalloproteases [4] = molecular target: various metalloproteases (Homo sapiens, UniProt P45452); experiment: as above; assay type: biochemical; details: MMP13; Table 4, in vitro
Method: as §1

Molecule | IC50 (hADAM-10) [nM] | IC50 (various metalloproteases [1]; MMP1, read-out: MMP1 IC50) [nM] | IC50 (various metalloproteases [1]; MMP3, read-out: MMP3 IC50) [nM] | IC50 (various metalloproteases [1]; MMP13, read-out: MMP13 IC50) [nM] | IC50 (various metalloproteases [1]; MMP2, read-out: MMP2 IC50) [nM] | IC50 (various metalloproteases [1]; TACE, read-out: TACE IC50) [nM] | IC50 (various metalloproteases [1]; MMP8, read-out: MMP8 IC50) [nM] | IC50 (various metalloproteases [1]; MMP9, read-out: MMP9 IC50) [nM] | IC50 (various metalloproteases [2]) [nM] | IC50 (various metalloproteases [3]) [nM] | IC50 (various metalloproteases [4]) [nM]
Cc1cc(C)cc(Oc2c(F)cc(S(=O)(=O)N[C@@H](CC3CCC(CN)CC3)C(=O)NO)cc2F)c1 (some centres unmarked) [Compound 106, 3-[4-(aminomethyl)cyclohexyl]-N^2-({4-[(3,5-dimethylphenyl)oxy]-3,5-difluorophenyl}sulfonyl)-N^1-hydroxyalaninamide] | 50 to 20000 |  |  |  |  |  |  |  |  |  | 
N=C(N)NCCC[C@@H](NS(=O)(=O)c1ccc(Oc2ccc(F)cc2)nc1)C(=O)NO [Compound 68, N^2-({6-[(4-fluorophenyl)oxy]pyridin-3-yl}sulfonyl)-N^1-hydxoxy-D-argininamide] | < 50 | 50 to 20000 | 50 to 1000 | < 50 |  |  |  |  |  |  | 
N^6-[(E)-(cyanoimino)(propylamino)methyl]-N^1-hydroxy-N^2-[(4-phenoxyphenyl)sulfonyl]-D-lysinamide [Compound 23] | < 50 | 50 to 1000 | < 50 | < 50 | < 50 | < 50 |  |  |  |  | 
Cc1cc(C)cc(Oc2c(F)cc(S(=O)(=O)NC(C(=O)NO)C3CCNCC3)cc2F)c1 (centres unmarked) [Compound 99, N^2-[({4-[(3,5-dimethylphenyl)oxy]-3,5-difluorophenyl}sulfonyl)amino]-N^1-hydroxy-2-piperidin-4-ylacetamide] | < 50 |  | < 50 | < 50 | < 50 |  |  |  |  |  | 
O=C(NO)C(NS(=O)(=O)c1ccc(Oc2ccc(F)cc2)cc1)C1CCNCC1 (centres unmarked) [Compound 97, N^2-[({4-[(4-fluorophenyl)oxy]phenyl}sulfonyl)amino]-N^1-hydroxy-2-piperidin-4-ylacetamide] | < 50 |  | < 50 | < 50 |  |  |  |  |  |  | 
N#Cc1ccc(C[C@@H](NS(=O)(=O)c2cc(F)c(Oc3ccc(F)cc3)c(F)c2)C(=O)NO)cc1 [Compound 72, 4-cyano-N^2-({3,5-difluoro-4-[(4-fluorophenyl)oxy]phenyl}sulfonyl)-N^1-hydroxy-D-phenylalaninamide] | 50 to 1000 | 50 to 20000 | 50 to 1000 | < 50 | < 50 |  |  |  |  |  | 
3-(1-{(Z)-[(aminocarbonyl)imino][(2-methoxyethyl)amino]methyl}piperidin-4-yl)-N^1-hydroxy-N^2-[(4-phenoxyphenyl)sulfonyl]alaninamide [Compound 44] |  | < 50 | < 50 | < 50 | < 50 |  |  |  |  |  | 
NCCCC[C@@H](NS(=O)(=O)c1ccc(Oc2ccccc2)cc1)C(=O)NO [Compound 13, N^1-hydroxy-N^2-{[4-(phenyloxy)phenyl]sulfonyl}-D-lysinamide] | < 50 | < 50 |  |  | < 50 | 50 to 1000 |  |  |  |  | 
CC(C)(SCC(=O)N1CCOCC1)[C@@H](NS(=O)(=O)c1cc(F)c(Oc2ccc(Cl)cc2)c(F)c1)C(=O)NO [Compound 91, N^2-({4-[(4-chlorophenyl)oxy]-3,5-difluorophenyl}sulfonyl)-N^1-hydroxy-3-[(2-morpholin-4-yl-2-oxoethyl)thio]-D-valinamide] |  |  |  |  | < 50 |  |  |  |  |  | 
CN(C)CC[C@@H](NS(=O)(=O)c1cc(F)c(Oc2ccc(Cl)cc2)c(F)c1)C(=O)NO [Compound 89, (2R)-N^2-[({4-[(4-chlorophenyl)oxy]-3,5-difluorophenyl}sulfonyl)amino]-4-(dimethylamino)-N^1-hydroxybutanamide] | < 50 |  | 50 to 20000 | 50 to 1000 | < 50 |  |  |  |  |  | 
3-{1-[(Z)-(cyanoimino)(propylamino)methyl]piperidin-4-yl}-N^1-hydroxy-N^2-[(4-phenoxyphenyl)sulfonyl]alaninamide [Compound 41] | < 50 | 50 to 20000 | < 50 | < 50 |  | < 50 |  |  |  |  | 
N=C(N)NCCC[C@@H](NS(=O)(=O)c1ccc(Oc2ccccc2)cc1)C(=O)NO [Compound 2, N^1-hydroxy-N^2-[(4-phenoxyphenyl)sulfonyl]-D-argininamide] | < 50 | 50 to 20000 | 50 to 1000 | < 50 | < 50 | 50 to 1000 | < 50 | < 50 |  |  | 
NCC1CCC(C[C@H](NS(=O)(=O)c2ccc(-c3cccc(F)c3)nc2)C(=O)NO)CC1 (some centres unmarked) [Compound 105, 3-[4-(aminomethyl)cyclohexyl]-N^2-{[6-(3-fluorophenyl)pyridin-3-yl]sulfonyl}-N^1-hydroxyalaninamide] | < 50 |  |  |  |  |  |  |  | < 50 | 50 to 1000 | < 50
